# Measured values taken from patent US20100062477A1, “METHODS OF ISOLATING AND PROPAGATING STEM CELLS FROM BENIGN TUMORS” (CEDARS-SINAI MEDICAL CENTER, priority 2006, published 2010).
# System: Pituitary tumor stem cells and adherent daughter cells
# Experiment: WST-1 proliferation assay of resistance to chemotherapeutic treatment
# Type: cell-based, human
# Settings: 50 μM carboplatin and 12.5 μM VP16 for 48 h; stem cells compared with adherent cells
# Experimental: Pituitary tumor stem cells and adherent daughter cells were also tested for the resistance to chemotherapeutic treatment. Cells were treated with 50 μM carboplatin and 12.5 μM VP16 for 48 h and the toxicity was assessed by WST-1 proliferation assay.
row,SMILES,toxicity assessed by WST-1 proliferation assay (resistance of pituitary tumor stem cells vs adherent daughter cells)
1,COc1cc([C@@H]2c3cc4c(cc3[C@@H](O[C@@H]3O[C@@H]5CO[C@@H](C)O[C@H]5[C@H](O)[C@H]3O)[C@H]3COC(=O)[C@H]23)OCO4)cc(OC)c1O [VP16],significantly more resistant than the adherent cells
2,N.N.O=C([O-])C1(C(=O)[O-])CCC1.[Pt+2] [carboplatin],significantly more resistant than the adherent cells
